US11041000B2, “Peptide inhibitors of interleukin-23 receptor and their use to treat inflammatory diseases” (priority 2019, dated 2021)
Bridge positions count the residues as written; N and C are the ends. Square brackets hold non-standard residues; d marks the D form. Peptide text beside a SMILES is read from it. Trp(7-Me) = Cc1cccc2c(C[C@H](N)C(=O)O)c[nH]c12; 2Nal = N[C@@H](Cc1ccc2ccccc2c1)C(=O)O; AEF = NCCOc1ccc(C[C@H](N)C(=O)O)cc1; Cit = NC(=O)NCCC[C@H](N)C(=O)O; Pen = CC(C)(S)[C@H](N)C(=O)O; αMeK = C[C@](N)(CCCCN)C(=O)O; Aib = CC(C)(N)C(=O)O; βAla = NCCC(=O)O

How the values were obtained:
[1] = Stability in simulated gastric fluid (SGF); format: in vitro ADME; conditions: simulated gastric fluid with porcine pepsin, pH 2, 37° C., 20 μM peptide
Method: SGF was prepared by adding 20 mg NaCl, 32 mg porcine pepsin (MP Biochemicals, catalog 02102599), and 70 μl HCl to 10 ml water (final pH=2). Aliquots of SGF (0.5 ml each) were pre-warmed at 37° C. To start the reaction, 1 μl of peptide stock solution (10 mM in DMSO) was added to 0.5 ml SGF and thoroughly mixed such that the final peptide concentration was 20 μM. The reactions were incubated at 37° C. with gentle shaking. At each time point (0, 15, 30, 60 min) 50 μl aliquots were removed and added to 200 ul acetonitrile containing 0.1% formic acid to quench the reaction. Samples are stored at 4° C. until the end of the experiment and centrifuged at 10,000 rpm for 5 minutes. Aliquots of the supernatant were removed, diluted 1:1 into distilled water containing internal standard, and analyzed by LCMS/MS. Percent remaining at each timepoint was calculated based on the peak area response ratio of test to compound to internal standard. Time 0 was set to 100%, and all later timepoints were calculated relative to time 0. Half-lives were calculated by fitting to a first-order exponential decay equation using GraphPad.

[2] = molecular target: IL-23R-expressing DB cells (Homo sapiens, UniProt Q5VWK5); test: DB cells IL23R pSTAT3 cell assay (pStat3HTRF); format: cell-based; conditions: DB cells stimulated with IL-23 0.5 nM, 30 minutes, phospho-STAT3 in cell lysates; read-out: pStat3 HTRF
Excerpt: Human ELISA indicates the IL23-IL23R competitive binding assay described below, Rat ELISA indicates the rat IL-23R competitive binding ELISA assay described below, and pStat3HTRF indicates the DB cells IL-23R pSTAT3 cell assay described below. The peptides depicted in Table E1 are cyclized via a disulfide bridge formed between two Pen residues in these peptides. The peptides depicted in Table E2 are cyclized via a thioether bond between the indicated amino acid residues. Table E2 provides an illustrative structure depicting thioether cyclization, which is indicated in the table by the term “cyclo,” with the cyclic region bracketed immediately following the term “cyclo.” For certain peptides, the residue Abu is present where indicated, whereas in other embodiments, e.g., those related to the non-cyclized form, the Abu may be referred to as a hSer(Cl) or homoSer residue. The petpides depicted in Table E3 are cyclized via a disulfide bridge formed between two Pen residues or a thioether bond between Abu and Cys.
IL-23 plays a central role in supporting and maintaining Th17 differentiation in vivo. This process is thought to be mediated primarily through the Signal Transducer and Activator of Transcription 3 (STAT3), with phosphorylation of STAT3 (to yield pSTAT3) leading to upregulation of RORC and pro-inflammatory IL-17. This cell assay examines the levels of pSTAT3 in IL-23R-expressing DB cells when stimulated with IL-23 in the presence of test compounds. Serial dilutions of test peptides and IL-23 (Humanzyme #HZ-1261) at a final concentration of 0.5 nM, were added to each well in a 96 well tissue culture plate (Corning #CLS3894). DB cells (ATCC #CRL-2289), cultured in RPMI-1640 medium (Thermo Scientific #11875093) supplemented with 10% FBS, were added at 5×10E5 cells/well and incubated for 30 minutes at 37° C. in a 5% CO2 humidified incubator. Changes in phospho-STAT3 levels in the cell lysates were detected using the Cisbio HTRF pSTAT3 (Tyr705) Cellular Assay Kit (Cisbio #62AT3PEH), according to manufacturer's Two Plate Assay protocol.

[3] = Stability in simulated intestinal fluid (SIF); format: in vitro ADME; conditions: simulated intestinal fluid with pancreatin, pH 6.8, 37° C., matrix is 100 fold dilution of standard SIF concentration, read-out: SIF t½ (converted)
Method: SIF was prepared by adding 6.8 g of monobasic potassium phosphate and 10.0 g of pancreatin to 1.0 L of water. After dissolution, the pH was adjusted to 6.8 using NaOH. DMSO stocks (2 mM) were first prepared for the test compounds. Aliquots of the DMSO solutions were dosed into 6 individual tubes, each containing 0.5 mL of SIF, which is pre-warmed to 37° C. The final test compound concentration was 20 μM. The vials were kept in a benchtop Thermomixer® for the duration of the experiment. At each timepoint (0, 5, 10, 20, 40, 60, or 360 minutes or 24 hours), 1.0 mL of acetonitrile containing 1% formic acid was added to one vial to terminate the reaction. Samples were stored at 4° C. until the end of the experiment. After the final timepoint is sampled, the tubes were mixed and then centrifuged at 3,000 rpm for 10 minutes. Aliquots of the supernatant were removed, diluted 1:1 into distilled water containing internal standard, and analyzed by LCMS/MS. Percent remaining at each timepoint was calculated based on the peak area response ratio of test to compound to internal standard. Time 0 was set to 100%, and all later timepoints were calculated relative to time 0. Half-lives were calculated by fitting to a first-order exponential decay equation using Graphpad.

[4] = Stability in human fecal homogenate; format: in vitro ADME; conditions: 20% fecal homogenate (supernatant), pH 6.8, 20% human fecal homogenate, anaerobic, 37° C., read-out: t½: Human Feces anaerobic (converted)
Method: (§1) Centrifuged the homogenate at 2800×g for 15 min. The supernatant is taken out and used for incubations. […] The final test compound concentration was 20 μM.

[5] = Stability in cynomolgus monkey fecal homogenate; format: in vitro ADME; conditions: 20% fecal homogenate (supernatant), anaerobic, pH 6.8, 20% cynomolgus monkey fecal homogenate, 37° C., read-out: t½: Monkey Feces anaerobic (converted)
Method: as §1

Stability in rat plasma = format: in vitro ADME; conditions: both sexes, SD rat plasma, EDTA, 37° C., read-out: t½: Rat Plasma EDTA (converted)
Method: Peptides of interest (20 μM) were incubated with pre-warmed rat plasma (SD rat, mixed gender pooled, EDTA, filtered through 0.22 μm, BioreclamationIVT) at 37° C. […] Quenched samples were stored at 4° C. until the end of the experiment and centrifuged at 4,000 rpm for 10 minutes. The supernatant were diluted 1:1 with deionized water and analyzed using LC-MS. Percentage remaining at each time point was calculated based on the peak area ratio (analyte over internal standard) relative to the initial level at time zero. Half-lives were calculated by fitting to a first-order exponential decay equation using GraphPad.

[6] = test system: Natural killer (NK) cells; test: NK cell based assay (IL-23-induced IFNγ); conditions: primary human NK cells, IL-23 plus IL-18 10 ng/mL, IFNγ in supernatant after 20 to 24 hours
Method: Natural killer (NK) cells, purified from human peripheral blood of healthy donors by negative selection (Miltenyi Biotech, Cat #130-092-657), were cultured in complete media (RPMI 1640 containing 10% FBS, L-glutamine and penicillin-streptomycin) in the presence of IL-2 (RnD, Cat #202-IL-010/CF) at 25 ng/mL. After 7 days, cells were centrifuged, and resuspended in complete media at 1E6 cells/mL. […] After 20 to 24 hours, IFNγ in the supernatant was quantified using Quantikine ELISA (RnD, Cat #DIF50).

IL-23R-expressing DB cells, sequence (Q5VWK5 24-629 limits assumed): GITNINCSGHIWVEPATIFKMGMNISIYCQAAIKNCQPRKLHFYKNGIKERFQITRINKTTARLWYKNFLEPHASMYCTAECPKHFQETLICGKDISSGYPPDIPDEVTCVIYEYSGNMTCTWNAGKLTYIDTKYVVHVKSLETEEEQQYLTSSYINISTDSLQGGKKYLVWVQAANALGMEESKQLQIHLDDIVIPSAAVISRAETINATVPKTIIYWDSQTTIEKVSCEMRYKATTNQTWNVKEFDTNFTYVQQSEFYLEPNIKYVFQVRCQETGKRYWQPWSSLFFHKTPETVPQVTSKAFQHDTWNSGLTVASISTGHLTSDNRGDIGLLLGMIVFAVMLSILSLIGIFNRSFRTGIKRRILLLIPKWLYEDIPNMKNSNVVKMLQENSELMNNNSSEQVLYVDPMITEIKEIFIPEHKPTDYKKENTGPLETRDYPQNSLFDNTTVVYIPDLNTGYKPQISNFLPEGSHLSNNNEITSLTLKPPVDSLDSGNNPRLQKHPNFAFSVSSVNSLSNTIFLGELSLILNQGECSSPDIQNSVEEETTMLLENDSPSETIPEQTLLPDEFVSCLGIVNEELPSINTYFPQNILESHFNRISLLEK

| Compound | SGF t½ [1] | IC50 [2] | half-life at 20 μM [3] | half-life at 20 μM [4] | half-life at 20 μM ([5]; cynomolgus monkey) | half-life at 20 μM (Stability in rat plasma) | IC50 [6] | half-life at 20 μM [5] |
| --- | --- | --- | --- | --- | --- | --- | --- | --- |
| CC(=O)NCCCC[C@H](NC(=O)[C@](C)(CCCCN)NC(=O)[C@H](Cc1ccc2ccccc2c1)NC(=O)[C@H](Cc1ccc(OCCN)cc1)NC(=O)[C@H]1NC(=O)[C@H](CCCNC(N)=O)NC(=O)[C@H](Cc2c[nH]c3c(C)cccc23)NC(=O)[C@H]([C@@H](C)O)NC(=O)[C@H](CC(N)=O)NC(=O)[C@@H](NC(C)=O)C(C)(C)SSC1(C)C)C(=O)N[C@@H](CC(N)=O)C(=O)NC(C)(C)C(N)=O [compound 264] (Ac-[Pen]NT[Trp(7-Me)][Cit][Pen][AEF][2Nal][αMeK]K(Ac)N[Aib]-NH2; disulfide 1-6) | 24 h |  |  |  |  |  |  |  |
| CC(=O)NCCCC[C@H](NC(=O)[C@](C)(CCCCN)NC(=O)[C@H](Cc1ccc2ccccc2c1)NC(=O)[C@H](Cc1ccc(OCCN)cc1)NC(=O)[C@H]1NC(=O)[C@H](CCC(N)=O)NC(=O)[C@H](Cc2c[nH]c3c(C)cccc23)NC(=O)[C@H]([C@@H](C)O)NC(=O)C(C)(C)NC(=O)[C@@H](NC(C)=O)C(C)(C)SSC1(C)C)C(=O)N[C@@H](CC(N)=O)C(=O)NCCC(N)=O [compound 240] (Ac-[Pen][Aib]T[Trp(7-Me)]Q[Pen][AEF][2Nal][αMeK]K(Ac)N[βAla]-NH2; disulfide 1-6) |  | 17.7 nM | 7 h | 4 h | 3 h | 8 h |  |  |
| CC(=O)NCCCC[C@@H]1NC(=O)[C@H](Cc2c[nH]c3c(C)cccc23)NC(=O)[C@H]([C@@H](C)O)NC(=O)[C@H](CC(N)=O)NC(=O)[C@@H](NC(C)=O)C(C)(C)SSC(C)(C)[C@@H](C(=O)N[C@@H](Cc2ccc(OCCN)cc2)C(=O)N[C@@H](Cc2ccc3ccccc3c2)C(=O)N[C@@](C)(CCCCN)C(=O)N[C@@H](CCCCNC(=O)C2CCCCC2)C(=O)N[C@@H](CC(N)=O)C(=O)N[C@H](CC(C)C)C(N)=O)NC1=O [compound 357] |  |  | 14 h | > 24 h |  | > 24 h | 3.8 nM | > 24 h |
